Source: patent publication US7381744B1, “Method of treating osteoporosis comprising vacuolar-type (H+)-ATPase-inhibiting compounds” (The United States of America as represented by the …, priority 1999, dated 2008)

How the values were obtained:
UACC-257 = assay: NCI 60 cell-line screen; type: cell-based; conditions: Homo sapiens, Melanoma, averaged, quadruplicate testing, read-out: negative log10 GI50 (converted)
Description: (§1) It is the concentration where 100×(T−To)/To=−50=PG. […] Res., 34, 91-109 (1995).

SR = assay: NCI 60 cell-line screen; type: cell-based; conditions: Homo sapiens, Leukemia, averaged, quadruplicate testing, read-out: negative log10 GI50 (converted)
Description: as §1

ACHN = assay: NCI 60 cell-line screen; type: cell-based; conditions: Homo sapiens, Kidney, averaged, quadruplicate testing, read-out: negative log10 GI50 (converted)
Description: as §1

PC-3 = assay: NCI 60 cell-line screen; type: cell-based; conditions: Homo sapiens, Prostate, averaged, quadruplicate testing, read-out: negative log10 GI50 (converted)
Description: as §1

786-0 = assay: NCI 60 cell-line screen; type: cell-based; conditions: Homo sapiens, Kidney, averaged, quadruplicate testing, read-out: negative log10 GI50 (converted)
Description: as §1

HS-578T = assay: NCI 60 cell-line screen; type: cell-based; conditions: Homo sapiens, Breast, averaged, quadruplicate testing, read-out: negative log10 GI50 (converted)
Description: as §1

OVCAR-4 = assay: NCI 60 cell-line screen; type: cell-based; conditions: Homo sapiens, Ovary, averaged, quadruplicate testing, read-out: negative log10 GI50 (converted)
Description: as §1

A549/ATCC = assay: NCI 60 cell-line screen; type: cell-based; conditions: Homo sapiens, Lung, averaged, quadruplicate testing, read-out: negative log10 GI50 (converted)
Description: as §1

HCT-116 = assay: NCI 60 cell-line screen; type: cell-based; conditions: Homo sapiens, Colon, averaged, quadruplicate testing, read-out: negative log10 GI50 (converted)
Description: as §1

SF-539 = assay: NCI 60 cell-line screen; type: cell-based; conditions: Homo sapiens, Brain, averaged, quadruplicate testing, read-out: negative log10 GI50 (converted)
Description: as §1

LOX-IMVI = assay: NCI 60 cell-line screen; type: cell-based; conditions: Homo sapiens, Melanoma, averaged, quadruplicate testing, read-out: negative log10 GI50 (converted)
Description: as §1

RXF-393 = assay: NCI 60 cell-line screen; type: cell-based; conditions: Homo sapiens, Kidney, averaged, quadruplicate testing, read-out: negative log10 GI50 (converted)
Description: as §1

TK-10 = assay: NCI 60 cell-line screen; type: cell-based; conditions: Homo sapiens, Kidney, averaged, quadruplicate testing, read-out: negative log10 GI50 (converted)
Description: as §1

MCF-7-ADR-RES = assay: NCI 60 cell-line screen; type: cell-based; conditions: Homo sapiens, Breast, averaged, quadruplicate testing, read-out: negative log10 GI50 (converted)
Description: as §1

UO-31 = assay: NCI 60 cell-line screen; type: cell-based; conditions: Homo sapiens, Kidney, averaged, quadruplicate testing, read-out: negative log10 GI50 (converted)
Description: as §1

NCI-H23 = assay: NCI 60 cell-line screen; type: cell-based; conditions: Homo sapiens, Lung, averaged, quadruplicate testing, read-out: negative log10 GI50 (converted)
Description: as §1

NCI-H522 = assay: NCI 60 cell-line screen; type: cell-based; conditions: Homo sapiens, Lung, averaged, quadruplicate testing, read-out: negative log10 GI50 (converted)
Description: as §1

A498 = assay: NCI 60 cell-line screen; type: cell-based; conditions: Homo sapiens, Kidney, averaged, quadruplicate testing, read-out: negative log10 GI50 (converted)
Description: as §1

UACC-62 = assay: NCI 60 cell-line screen; type: cell-based; conditions: Homo sapiens, Melanoma, averaged, quadruplicate testing, read-out: negative log10 GI50 (converted)
Description: as §1

RPMI-8226 = assay: NCI 60 cell-line screen; type: cell-based; conditions: Homo sapiens, Leukemia, averaged, quadruplicate testing, read-out: negative log10 GI50 (converted)
Description: as §1

MALME-3M = assay: NCI 60 cell-line screen; type: cell-based; conditions: Homo sapiens, Melanoma, averaged, quadruplicate testing, read-out: negative log10 GI50 (converted)
Description: as §1

COLO 205 = assay: NCI 60 cell-line screen; type: cell-based; conditions: Homo sapiens, Colon, averaged, quadruplicate testing, read-out: negative log10 GI50 (converted)
Description: as §1

MDA-MB-231/ATCC = assay: NCI 60 cell-line screen; type: cell-based; conditions: Homo sapiens, Breast, averaged, quadruplicate testing, read-out: negative log10 GI50 (converted)
Description: as §1

SK-OV-3 = assay: NCI 60 cell-line screen; type: cell-based; conditions: Homo sapiens, Ovary, averaged, quadruplicate testing, read-out: negative log10 GI50 (converted)
Description: as §1

BT-549 = assay: NCI 60 cell-line screen; type: cell-based; conditions: Homo sapiens, Breast, averaged, quadruplicate testing, read-out: negative log10 GI50 (converted)
Description: as §1

NCI-H460 = assay: NCI 60 cell-line screen; type: cell-based; conditions: Homo sapiens, Lung, averaged, quadruplicate testing, read-out: negative log10 GI50 (converted)
Description: as §1

U251 = assay: NCI 60 cell-line screen; type: cell-based; conditions: Homo sapiens, U-251, Brain, averaged, quadruplicate testing, read-out: negative log10 GI50 (converted)
Description: as §1

MDA-MB-435 = assay: NCI 60 cell-line screen; type: cell-based; conditions: Homo sapiens, Breast, averaged, quadruplicate testing, read-out: negative log10 GI50 (converted)
Description: as §1

[1] = test system: mammalian vacuolar-type (H+)-ATPase (from chromaffin granule membranes); assay: mammalian vacuolar-type (H+)-ATPase inhibition, side-by-side test; type: biochemical; conditions: chromaffin granule membranes; side-by-side test
Description: (§2) The inhibitory data were obtained using the same procedures and biological preparations described in Bowman et al., Proc. Natl. Acad. Sci. USA, 85, 7972-7976 (November 1988).

[2] = stability in solvents observed during isolation and NMR; type: physicochemical; conditions: deuterated chloroform
Description: Therefore, all subsequent attempts at isolation avoided the use of chloroform or exposure of samples to CDCl3, and no further problems with decomposition or loss of bioactivity were encountered. Moreover, there was no indication of any instability of the pure isolated compounds in any of the other common organic solvents employed, nor in aqueous or biological media.
Signals obscured by or unresolved in the first solvent were readily discernible in the second. Consequently, ^1H-^1H COSY, HMQC, and HMBC NMR data were gathered in both solvents. […] From a combination of the HMQC (Table 2) and the COSY spectral data, the partial structures illustrated in FIGS. 5A-5C were generated.

[3] = test system: vacuolar-type (H+)-ATPase derived from macrophage cells (J774); assay: vacuolar-type (H+)-ATPase inhibition assay, membrane vesicles (J774); type: biochemical; conditions: bafilomycin-sensitive activity; oligomycin 5 μg/ml and vanadate 1 mM present; 37°, 30 minutes
Protocol: (§3) Inhibition of bafilomycin-sensitive vacuolar-type (H+)-ATPase activity was measured in partially purified membrane vesicle preparations from human osteoclastoma cells (hOc), human renal cortical cells (hK), and macrophage cells (J774). The vesicles were prepared by appropriate adaptations of methods described in Gagliardi et al., J. Med. Chem., 41, 1568-1573 (1998); and Gagliardi et al., J. Med. Chem., 41, 1883-1893 (1998).
(§4) Vacuolar-type (H+)-ATPase assays were performed in the presence of oligomycin (5 μg/ml) and vanadate (1 mM) as inhibitors of F- and P-ATPases, respectively. A […] method was used to quantitate the residual bafilomycin-sensitive vacuolar-type (H+)-ATPase activity (see Chan et al., Anal. Biochem., 157, 375-380 (1986)). The assay measures the release of inorganic phosphate from ATP at 37° during 30 minutes of incubation. The reaction is initiated by the addition of MgSO4 ([…]).

[4] = test system: vacuolar-type (H+)-ATPase derived from human kidney cells (hK); assay: vacuolar-type (H+)-ATPase inhibition assay, membrane vesicles (hK); type: biochemical; conditions: bafilomycin-sensitive activity; oligomycin 5 μg/ml and vanadate 1 mM present; 37°, 30 minutes
Protocol: as §3, §4

[5] = test system: fungal vacuolar-type (H+)-ATPase (from Neurospora crassa); assay: fungal vacuolar-type (H+)-ATPase inhibition, side-by-side test; type: biochemical
Description: as §2

For `CC/C=C\C=C/C(=O)N/C=C/CC1CC(O)C(C)C/C=C/Cc2cccc(O)c2C(=O)O1` (stereo not drawn) [salicylihalamide A], the GI50 (UACC-257) was 3.39 nM, the GI50 (SR) was 3.63 nM and the GI50 (ACHN) was 9.77 nM. For the same compound, the GI50 (PC-3) was 30.9 nM, the GI50 (786-0) was 12 nM and the GI50 (HS-578T) was 1410 nM. The GI50 (OVCAR-4) was 5010 nM, the GI50 (A549/ATCC) was 2.88 nM and the GI50 (HCT-116) was 1.82 nM. The GI50 (SF-539) was 12.9 nM, the GI50 (LOX-IMVI) was 0.776 nM and the GI50 (RXF-393) was 0.851 nM. It also gave a GI50 (TK-10) of 1820 nM, a GI50 (MCF-7-ADR-RES) of 8.51 nM and a GI50 (UO-31) of 4.9 nM. The GI50 (NCI-H23) was 282 nM, the GI50 (NCI-H522) was 55 nM and the GI50 (A498) was 282 nM. For the same compound, the GI50 (UACC-62) was 4.17 nM, the GI50 (RPMI-8226) was 12.9 nM and the GI50 (MALME-3M) was 24 nM. The GI50 (COLO 205) was 8.51 nM, the GI50 (MDA-MB-231/ATCC) was 120 nM and the GI50 (SK-OV-3) was 2880 nM. The GI50 (BT-549) was 0.501 nM, the GI50 (NCI-H460) was 0.977 nM and the GI50 (U251) was 26.9 nM. For the same compound, the GI50 (MDA-MB-435) was 15.1 nM, the “inhibitory activity against mammalian vacuolar-type (H+)-ATPase” value [1] was “potent inhibitor” and the “stability in CDCl3” value [2] was “sensitivity of salicylihalamide A to CDCl3”. For the same compound, the IC50 [3] was 2.8 nM, the IC50 [4] was 0.3 nM and the “inhibitory activity against fungal vacuolar-type (H+)-ATPase” value [5] was “little or no inhibitory activity”.
